# From US11964971B2, “Methods and compositions for modulating splicing” (Skyhawk Therapeutics, Inc., priority 2019, dated 2024)
# Experiments:
# [1] = test system: MDR1; assay: in vitro; conditions: dog; for Papp A→B at 120 min, 5 μM: MDCK-MDR1, pH 7.4, MDCK-MDR1: Papp A-B (10^−6, cm/s); for Papp B→A at 120 min, 5 μM: MDCK-MDR1, pH 7.4, MDCK-MDR1: Papp B-A (10^−6, cm/s)
# Procedure: (§1) Experimental Procedure: MDR1-MDCK cell monolayers are grown to confluence on collagen-coated, microporous membranes in 12-well assay plates. The permeability assay buffer is Hanks' balanced salt solution containing 10 mM HEPES and 15 mM glucose at a pH of 7.4. The buffer in the receiver chamber also contained 1% bovine serum albumin. The dosing solution concentration is 5 μM of test article in the assay buffer. Cell monolayers are dosed on the apical side (A-to-B) or basolateral side (B-to-A) and incubated at 37° C. with 5% CO2 in a humidified incubator. Samples are taken from the donor and receiver chambers at 120 minutes. Each determination is performed in duplicate. The flux of lucifer yellow is also measured post-experimentally for each monolayer to ensure no damage was inflicted to the cell monolayers during the flux period. All samples are assayed by LC-MS/MS using electrospray ionization.
# (§2) Analytical Method: Liquid Chromatography • Column: Waters ACQUITY UPLC BEH Phenyl 30×2.1 mm, 1.7 μm • M.P. Buffer: 25 mM ammonium formate buffer, pH 3.5 • Aqueous Reservoir (A): 90% water, 10% buffer • Organic Reservoir (B): 90% acetonitrile, 10% buffer • Flow Rate: 0.7 mL/minute • Gradient Program:
# (§3) • Total Run Time: 1.00 minute • Autosampler: 2 μL injection volume • Wash1: water/methanol/2-propanol:1/1/1; with 0.2% formic acid • Wash2: 0.1% formic acid in water • Brain Penetration • Potential Classification: A-B Papp≥3.0 and Efflux Ratio<3.0: High • A-B Papp≥3.0 and 10>Efflux Ratio≥3.0: Moderate • A-B Papp≥3.0 and Efflux Ratio≥10: Low • A-B Papp<3.0: Low
# [2] = test system: MDR1-MDCK cell monolayers; conditions: dog, MDCK-MDR1, 120 min, 5 μM, pH 7.4
# Procedure: as §1, §2, §3
# [3] = test system: SMN protein; assay: SMN protein assay (MSD) in SMA patient fibroblasts (GM03813); assay type: cell-based, human
# Procedure: Compounds are tested on spinal muscular atrophy (SMA) patient fibroblasts (GM03813, Coriell) at doses ranging from 2.5 μM to 0.6 nM. 7000 cells/well are seeded in 96-well plates. Compounds are incubated for 48 hours and the cells were lysed with 100 μL of lysis buffer. 20 μL of lysate is used for SMN protein measurement by Mesoscale Discovery (MSD) assay developed by PharmOptima (Michigan). A standard curve prepared with SMN protein ranging from […] is used in each MSD plate to calculate the absolute SMN protein amount in each sample.
# [4] = test system: MDR1 (P-gp); assay: MDCK-MDR1 permeability assay, blood-brain-barrier penetration potential; conditions: dog, MDCK-MDR1, pH 7.4, MDCK-MDR1 Efflux Ratio
# Procedure: as §1, §2, §3
SMILES,"Papp A→B at 120 min, 5 μM [1]","Papp B→A at 120 min, 5 μM [1]",MDCK-MDR1: % Recov A-B (%) [2],MDCK-MDR1: % Recov B-A (%) [2],EC50 [3],"efflux ratio at 120 min, 5 μM [4]"
"COc1cc(-c2ccc(-c3cnc(N(C)[C@@H]4CC5CC[C@H](N5)[C@@H]4F)cn3)c(O)c2)cc(F)n1 (single isomer, unassigned) [Compound 44E1]",2.33 ×10⁻⁶ cm/s,5.55 ×10⁻⁶ cm/s,14%,41%,501 to 10000 nM,2
"Cc1cc(-c2ccc(-c3cnc(N(C)[C@H]4C[C@@H]5CCC(N5)[C@H]4F)cn3)c(O)c2)cc(=O)[nH]1 (single isomer, unassigned) [Compound 77E2]",0.32 ×10⁻⁶ cm/s,14.9 ×10⁻⁶ cm/s,44%,50%,501 to 10000 nM,47
"CN(c1cnc(-c2cc(F)c(-c3cnn(C)c3)cc2O)cn1)[C@H]1C[C@@H]2CCC(N2)[C@H]1F (single isomer, unassigned) [Compound 17E1]",4.22 ×10⁻⁶ cm/s,18.6 ×10⁻⁶ cm/s,31%,74%,0.01 to 15 nM,4
"COc1cc(-c2cc(O)c(-c3cnc(N(C4CC4)[C@H]4C[C@@H]5CCC(N5)[C@H]4F)cn3)cc2F)ccn1 (single isomer, unassigned) [Compound 36E2]",0.59 ×10⁻⁶ cm/s,1.3 ×10⁻⁶ cm/s,10%,40%,501 to 10000 nM,2
"CN(c1cnc(-c2cc(F)c(-c3ccn(CF)c(=O)c3)cc2O)cn1)[C@@H]1C[C@H]2CC[C@H](N2)[C@@H]1F [Compound 32E1, 4-(2-fluoro-4-(5-(((1S,2S,3R,5R)-2-fluoro-8-azabicyclo[3.2.1]octan-3-yl)(methyl)amino)pyrazin-2-yl)-5-hydroxyphenyl)-1-(fluoromethyl)pyridin-2(1H)-one]",3.13 ×10⁻⁶ cm/s,58.7 ×10⁻⁶ cm/s,101%,92%,501 to 10000 nM,19
"CNC(=O)/C=C/c1cc(O)c(-c2cnc(N(C)[C@@H]3CC4CC[C@H](N4)[C@@H]3F)cn2)cc1F (single isomer, unassigned) [Compound 60E1]",1.71 ×10⁻⁶ cm/s,51.3 ×10⁻⁶ cm/s,93%,88%,51 to 100 nM,30
"Cn1ccc(-c2cc(O)c(-c3cnc(N(C4CC4)[C@H]4C[C@@H]5CCC(N5)[C@H]4F)cn3)cc2F)cc1=O (single isomer, unassigned) [Compound 38E2]",1.75 ×10⁻⁶ cm/s,57.7 ×10⁻⁶ cm/s,82%,82%,501 to 10000 nM,33
"CN(c1cnc(-c2ccc(-c3cn[nH]c3)cc2O)cn1)[C@@H]1C[C@H]2CCC(N2)[C@@H]1F (single isomer, unassigned) [Compound 8E1]",3.58 ×10⁻⁶ cm/s,33.3 ×10⁻⁶ cm/s,72%,71%,501 to 10000 nM,9
"COc1cc(-c2ccc(-c3cnc(N(C4CC4)[C@H]4C[C@@H]5CCC(N5)[C@H]4F)cn3)c(O)c2)ccn1 (single isomer, unassigned) [Compound 51E2]",1.27 ×10⁻⁶ cm/s,2.99 ×10⁻⁶ cm/s,11%,34%,501 to 10000 nM,2
"CN(c1cnc(-c2cc(F)c(-c3cn[nH]c3)cc2O)cn1)[C@@H]1CC2CC(F)(F)[C@@H](C1)N2 (single isomer, unassigned) [Compound 65E1]",20.9 ×10⁻⁶ cm/s,54.5 ×10⁻⁶ cm/s,54%,71%,101 to 500 nM,3
"O=c1cc(-c2cc(O)c(-c3cnc(N(C4CC4)[C@H]4C[C@@H]5CCC(N5)[C@H]4F)cn3)cc2F)ccn1CF (single isomer, unassigned) [Compound 39E2]",2.58 ×10⁻⁶ cm/s,62 ×10⁻⁶ cm/s,82%,81%,501 to 10000 nM,24
"Cn1cnc(-c2ccc(-c3cnc(N(C4CC4)[C@H]4C[C@@H]5CCC(N5)[C@H]4F)cn3)c(O)c2)cc1=O (single isomer, unassigned) [Compound 55E2]",2.25 ×10⁻⁶ cm/s,42.2 ×10⁻⁶ cm/s,71%,76%,501 to 10000 nM,19
